The target in one test is T1, Interstitial collagenase (Homo sapiens, UniProt P03956).
T1 sequence (P03956 whole entry): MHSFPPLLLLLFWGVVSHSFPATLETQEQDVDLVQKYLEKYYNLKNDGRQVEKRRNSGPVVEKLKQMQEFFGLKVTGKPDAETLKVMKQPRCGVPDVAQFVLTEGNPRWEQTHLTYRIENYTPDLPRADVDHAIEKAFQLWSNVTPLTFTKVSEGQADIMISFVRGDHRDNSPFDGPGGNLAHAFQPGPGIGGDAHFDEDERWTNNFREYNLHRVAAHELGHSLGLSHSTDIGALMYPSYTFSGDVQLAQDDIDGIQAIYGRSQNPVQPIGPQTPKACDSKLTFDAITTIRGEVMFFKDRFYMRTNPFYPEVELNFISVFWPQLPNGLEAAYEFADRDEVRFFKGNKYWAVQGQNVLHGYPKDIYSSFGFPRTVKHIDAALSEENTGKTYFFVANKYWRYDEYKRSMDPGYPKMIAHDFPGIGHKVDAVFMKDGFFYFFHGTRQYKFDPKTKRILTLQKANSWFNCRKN
Briefly: Inhibition of the collagenase enzyme.

Another test has as its target Stromelysin-1 (Homo sapiens, UniProt P08254). Briefly: Inhibition of the stromelysin enzyme.
Test [1] deals with 72 kDa type IV collagenase (Homo sapiens, UniProt P08253). Briefly: Inhibition of the gelatinase-A enzyme.
Sequence of 72 kDa type IV collagenase (P08253 whole entry): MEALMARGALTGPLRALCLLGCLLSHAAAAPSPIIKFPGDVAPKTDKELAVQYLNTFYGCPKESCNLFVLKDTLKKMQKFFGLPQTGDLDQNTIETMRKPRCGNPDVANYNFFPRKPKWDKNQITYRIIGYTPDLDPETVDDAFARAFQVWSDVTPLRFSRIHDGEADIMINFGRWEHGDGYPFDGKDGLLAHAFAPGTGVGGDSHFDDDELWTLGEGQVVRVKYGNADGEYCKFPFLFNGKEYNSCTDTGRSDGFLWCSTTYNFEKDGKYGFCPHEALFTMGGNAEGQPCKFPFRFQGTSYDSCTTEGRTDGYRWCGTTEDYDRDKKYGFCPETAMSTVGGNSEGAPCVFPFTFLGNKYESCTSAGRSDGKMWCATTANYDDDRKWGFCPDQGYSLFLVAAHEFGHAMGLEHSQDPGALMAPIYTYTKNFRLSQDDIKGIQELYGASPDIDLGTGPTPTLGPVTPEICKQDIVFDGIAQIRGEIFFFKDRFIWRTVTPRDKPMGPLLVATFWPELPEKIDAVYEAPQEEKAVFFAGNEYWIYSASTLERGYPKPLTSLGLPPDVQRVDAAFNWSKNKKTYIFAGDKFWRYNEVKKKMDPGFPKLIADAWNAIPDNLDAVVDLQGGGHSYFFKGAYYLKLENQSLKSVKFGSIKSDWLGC

Sequence of Stromelysin-1 (P08254 whole entry): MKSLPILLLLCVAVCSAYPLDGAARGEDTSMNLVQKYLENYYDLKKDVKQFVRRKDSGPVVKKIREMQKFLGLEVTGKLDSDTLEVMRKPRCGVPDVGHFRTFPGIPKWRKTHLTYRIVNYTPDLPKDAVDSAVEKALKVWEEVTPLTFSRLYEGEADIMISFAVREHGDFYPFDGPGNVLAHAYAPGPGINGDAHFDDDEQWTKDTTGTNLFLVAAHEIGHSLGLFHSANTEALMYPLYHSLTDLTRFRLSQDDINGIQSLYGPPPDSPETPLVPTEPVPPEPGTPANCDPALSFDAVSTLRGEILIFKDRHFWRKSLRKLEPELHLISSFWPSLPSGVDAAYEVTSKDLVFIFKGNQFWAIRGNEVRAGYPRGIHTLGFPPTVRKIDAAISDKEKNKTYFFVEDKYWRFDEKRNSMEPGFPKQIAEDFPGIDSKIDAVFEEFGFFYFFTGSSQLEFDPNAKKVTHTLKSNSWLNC

Usually Ki stands for the equilibrium dissociation constant of an inhibitor or competing ligand from its target. Read a high Ki as weaker binding. As for `O=C(C[C@@H](CCCc1ccc(F)cc1)C(=O)N[C@@H](CC1CCCCC1)C(=O)NCCc1ccccc1)NO`, the Ki is 296 nM at Interstitial collagenase, 13.5 nM at Stromelysin-1 and 0.06 nM in test [1].

As to `COc1ccc(CCC[C@H](CC(=O)NO)C(=O)N[C@@H](CC2CCCCC2)C(=O)NCCc2ccccc2)cc1`, the results for the inhibition constant Ki (at Interstitial collagenase; on Stromelysin-1; in test [1]) were 1530 nM, 4.16 nM and 0.06 nM, respectively.

With `O=C(C[C@@H](CCCc1ccc(Cl)cc1)C(=O)N[C@@H](CC1CCCCC1)C(=O)NCCc1ccccc1)NO`, the Ki on Stromelysin-1 was 7.31 nM; in test [1], 0.03 nM.

Turning to `Cc1ccc(CCC[C@H](CC(=O)NO)C(=O)N[C@@H](CC2CCCCC2)C(=O)NCCc2ccccc2)cc1`, the figures for the Ki (at Interstitial collagenase; at Stromelysin-1; in test [1]) were 921 nM, 8.24 nM and 0.08 nM, respectively.

Regarding `CN(C)CCCCNC(=O)[C@H](CC1CCCCC1)NC(=O)[C@H](CCCc1ccc(Cl)cc1)CC(=O)NO`, the figures for the Ki (on Interstitial collagenase; at Stromelysin-1; in test [1]) were 1050 nM, 22.2 nM and 0.05 nM, respectively.

As for `O=C(C[C@@H](Cc1ccccc1)C(=O)N[C@@H](CC1CCCCC1)C(=O)NCCc1ccccc1)NO`, the Ki at Interstitial collagenase was greater than 10000 nM; on Stromelysin-1, greater than 10000 nM; in test [1], 1900 nM.

In the case of `O=C(C[C@@H](CCCC1CCCCC1)C(=O)N[C@@H](CC1CCCCC1)C(=O)NCCc1ccccc1)NO`, the inhibition constant Ki in test [1] was determined as 6.9 nM.

With `Cc1ccc(CCC[C@H](CC(=O)NO)C(=O)N[C@@H](CC2CCCCC2)C(=O)NCCN2CCOCC2)cc1`, the Ki at Interstitial collagenase was determined as 455 nM; on Stromelysin-1, 6.26 nM; in test [1] it was 0.01 nM.

Turning to `CCc1ccc(CCC[C@H](CC(=O)NO)C(=O)N[C@@H](CC2CCCCC2)C(=O)NCCc2ccccc2)cc1`, the Ki at Interstitial collagenase was 5120 nM; on Stromelysin-1 it was 5.44 nM; in test [1], 0.1 nM.

On to `O=C(C[C@@H](CCCCc1ccccc1)C(=O)N[C@@H](CC1CCCCC1)C(=O)NCCc1ccccc1)NO`, for which the Ki at Interstitial collagenase was 2500 nM; at Stromelysin-1, 177 nM; in test [1], 0.254 nM.

For the molecule `O=C(C[C@@H](CCCc1ccccc1)C(=O)N[C@@H](CC1CCCCC1)C(=O)NCCc1ccccc1)NO`, the values for the inhibition constant Ki (at Interstitial collagenase; at Stromelysin-1; in test [1]) were 203 nM, 8.3 nM and 0.062 nM, respectively.

With `O=C(C[C@@H](CCCc1ccc(C(F)(F)F)cc1)C(=O)N[C@@H](CC1CCCCC1)C(=O)NCCc1ccccc1)NO`, the figures for the Ki (at Interstitial collagenase; at Stromelysin-1; in test [1]) were 5000 nM, 90.3 nM and 0.3 nM, respectively.

As for `CC(C)C[C@H](CC(=O)NO)C(=O)N[C@@H](CC1CCCCC1)C(=O)NCCc1ccccc1`, the figures for the Ki (on Interstitial collagenase; on Stromelysin-1; in test [1]) were 7.8 nM, 25.3 nM and 0.33 nM, respectively.

For the molecule `O=C(C[C@@H](CCc1ccccc1)C(=O)N[C@@H](CC1CCCCC1)C(=O)NCCc1ccccc1)NO`, the inhibition constant (Ki) is 618 nM at Interstitial collagenase, 77 nM on Stromelysin-1 and 2.24 nM in test [1].

Regarding `O=C(C[C@@H](CCCc1ccccc1)C(=O)N[C@@H](CC1CCCCC1)C(=O)NCCc1ccc(S(=O)(=O)O)cc1)NO`, the inhibition constant Ki on Interstitial collagenase is 942 nM; on Stromelysin-1, 8.15 nM; in test [1], 0.59 nM.

Molecule `O=C(C[C@@H](CCCc1ccc(Cl)cc1)C(=O)N[C@@H](CC1CCCCC1)C(=O)NCCNS(=O)(=O)N1CCOCC1)NO` displayed a Ki in test [1] of 0.01 nM.

Turning to `Cc1ccc(CCC[C@H](CC(=O)NO)C(=O)N[C@@H](CC2CCCCC2)C(=O)NCCc2ccc(S(N)(=O)=O)cc2)cc1`, the Ki at Interstitial collagenase stood at 329 nM; at Stromelysin-1, 2.98 nM; in test [1], 0.01 nM.

For the molecule `NS(=O)(=O)c1ccc(CCNC(=O)[C@H](CC2CCCCC2)NC(=O)[C@H](CCCc2ccc(Cl)cc2)CC(=O)NO)cc1`, the Ki at Interstitial collagenase turned out to be 382 nM; on Stromelysin-1, 6.35 nM; in test [1], 0.03 nM.

Turning to `COC(=O)CCNC(=O)[C@H](CC1CCCCC1)NC(=O)[C@H](CCCc1ccc(Cl)cc1)CC(=O)NO`, the Ki at Interstitial collagenase came to 135 nM; at Stromelysin-1, 0.96 nM; in test [1], 0.01 nM.

`O=C(C[C@@H](CCCc1ccc(Cl)cc1)C(=O)N[C@@H](CC1CCCCC1)C(=O)NCCC(=O)N1CCOCC1)NO`: the inhibitory constant (Ki) was 319 nM at Interstitial collagenase, 1.38 nM on Stromelysin-1 and 0.02 nM in test [1].

With `O=C(O)CCNC(=O)[C@H](CC1CCCCC1)NC(=O)[C@H](CCCc1ccc(Cl)cc1)CC(=O)NO`, the Ki came out at 193 nM on Interstitial collagenase, 0.8 nM at Stromelysin-1 and 0.01 nM in test [1].

In test [1], `Cc1ccc(CCC[C@H](CC(=O)NO)C(=O)N[C@@H](CC2CCCCC2)C(=O)NCCNS(=O)(=O)N2CCOCC2)cc1` yielded a Ki of 0.01 nM.

For the molecule `O=C(C[C@@H](CCCc1ccc(Cl)cc1)C(=O)N[C@@H](CC1CCCCC1)C(=O)NCCCCN1CCOCC1)NO`, the Ki is 313 nM at Interstitial collagenase, 2.39 nM on Stromelysin-1 and 0.03 nM in test [1].

In the case of `Cc1ccc(CCC[C@H](CC(=O)NO)C(=O)N[C@@H](CC2CCCCC2)C(=O)NCCCCN(C)C)cc1`, the Ki at Interstitial collagenase stood at 313 nM; at Stromelysin-1, 5.87 nM; in test [1] it was 0.02 nM.

As to `CC(C)C[C@H](CC(=O)NO)C(=O)N[C@@H](CC(C)C)C(=O)N[C@@H](Cc1ccccc1)C(N)=O`, the Ki on Interstitial collagenase worked out at 303 nM; on Stromelysin-1, 127 nM.

With `Cc1ccc(CCC[C@H](CC(=O)NO)C(=O)N[C@@H](CC2CCCCC2)C(=O)NCCCCN2CCOCC2)cc1`, the Ki at Interstitial collagenase was 642 nM; on Stromelysin-1 it was 2.61 nM; in test [1], 0.02 nM.

Values taken from ChEMBL document CHEMBL1128021, “Potent and selective inhibitors of gelatinase-a 1. hydroxamic acid derivatives” (Bioorg Med Chem Lett, 1994).
